# Measured values reported in PubChem BioAssay (NCI).
#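 Following 48 hours of exposure in 96-well plates, responses at five concentrations were used to interpolate endpoints linearly. GI50 = concentration required for 50% inhibition of growth. The concentration for full growth arrest is given as TGI.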
# Assays:
# Assay in all cases: NCI tumour cell line growth inhibition, 48 h
# [1] = tested on: 786-0 renal
# [2] = tested on: A498 renal
# [3] = tested on: A549 NSCLC
# [4] = tested on: ACHN renal
# [5] = tested on: BT-549 breast
# [6] = tested on: CAKI-1 renal
# [7] = tested on: CCRF-CEM leukemia
# [8] = tested on: COLO 205 colon
# [9] = tested on: DU-145 prostate
# [10] = tested on: EKVX NSCLC
# [11] = tested on: HCC-2998 colon
# [12] = tested on: HCT-116 colon
# [13] = tested on: HCT-15 colon
# [14] = tested on: HL-60(TB) leukemia
# [15] = tested on: HOP-62 NSCLC
# [16] = tested on: HOP-92 NSCLC
# [17] = tested on: HS 578T breast
# [18] = tested on: HT29 colon
# [19] = tested on: IGROV1 ovarian
# [20] = tested on: K-562 leukemia
# [21] = tested on: KM12 colon
# [22] = tested on: LOX IMVI melanoma
# [23] = tested on: M14 melanoma
# [24] = tested on: MALME-3M melanoma
# [25] = tested on: MCF7 breast
# [26] = tested on: MDA-MB-231 breast
# [27] = tested on: MDA-MB-435
# [28] = tested on: MOLT-4 leukemia
# [29] = tested on: NCI-H226 lung
# [30] = tested on: NCI-H23 lung
# [31] = tested on: NCI-H460 lung
# [32] = tested on: NCI-H522 lung
# [33] = tested on: NCI/ADR-RES ovarian
# [34] = tested on: OVCAR-3 ovarian
# [35] = tested on: OVCAR-4 ovarian
# [36] = tested on: OVCAR-5 ovarian
# [37] = tested on: OVCAR-8 ovarian
# [38] = tested on: PC-3 prostate
# [39] = tested on: RPMI-8226 leukemia
# [40] = tested on: SF-268 CNS
# [41] = tested on: SF-295 CNS
# [42] = tested on: SF-539 CNS
# [43] = tested on: SK-MEL-2 melanoma
# [44] = tested on: SK-MEL-28 melanoma
# [45] = tested on: SK-MEL-5 melanoma
# [46] = tested on: SK-OV-3 ovarian
# [47] = tested on: SN12C renal
# [48] = tested on: SNB-19 CNS
# [49] = tested on: SNB-75 CNS
# [50] = tested on: SR leukemia
# [51] = tested on: SW-620 colon
# [52] = tested on: T-47D breast
# [53] = tested on: TK-10 renal
# [54] = tested on: UACC-257 melanoma
# [55] = tested on: UACC-62 melanoma
# [56] = tested on: UO-31 renal
smiles,measurement,setting,value
CN(C)CCCOc1ccc(C(=C(c2ccccc2)C2CCCC2)c2ccc(OCCCN(C)C)cc2)cc1,GI50,[1],2.62 µM
same,TGI,[1],8.3 µM
same,GI50,[2],13.8 µM
same,TGI,[2],28.5 µM
same,GI50,[3],3.47 µM
same,TGI,[3],16.6 µM
same,GI50,[4],2.12 µM
same,TGI,[4],4.7 µM
same,GI50,[5],15.3 µM
same,TGI,[5],30.8 µM
same,GI50,[6],3.62 µM
same,TGI,[6],13.6 µM
same,GI50,[7],2.58 µM
same,TGI,[7],6.85 µM
same,GI50,[8],1.71 µM
same,TGI,[8],3.62 µM
same,GI50,[9],4.43 µM
same,TGI,[9],15.2 µM
same,GI50,[10],7.43 µM
same,TGI,[10],21.3 µM
same,GI50,[11],1.93 µM
same,TGI,[11],3.91 µM
same,GI50,[12],1.89 µM
same,TGI,[12],4.13 µM
same,GI50,[13],1.67 µM
same,TGI,[13],3.22 µM
same,GI50,[14],2.03 µM
same,TGI,[14],4.44 µM
same,GI50,[15],14.6 µM
same,TGI,[15],32.6 µM
same,GI50,[16],2.72 µM
same,TGI,[16],15.2 µM
same,GI50,[17],2.13 µM
same,TGI,[17],5.53 µM
same,GI50,[18],1.97 µM
same,TGI,[18],3.97 µM
same,GI50,[19],2.07 µM
same,TGI,[19],4.58 µM
same,GI50,[20],2.02 µM
same,TGI,[20],5.26 µM
same,GI50,[21],3.56 µM
same,TGI,[21],13.1 µM
same,GI50,[22],1.63 µM
same,TGI,[22],2.99 µM
same,GI50,[23],1.85 µM
same,TGI,[23],3.74 µM
same,GI50,[24],1.64 µM
same,TGI,[24],3.01 µM
same,GI50,[25],1.33 µM
same,TGI,[25],2.69 µM
same,GI50,[26],1.74 µM
same,TGI,[26],3.22 µM
same,GI50,[27],1.7 µM
same,TGI,[27],3.09 µM
same,GI50,[28],2.56 µM
same,TGI,[28],6.34 µM
same,GI50,[29],2.81 µM
same,TGI,[29],11.4 µM
same,GI50,[30],4.95 µM
same,TGI,[30],17.5 µM
same,GI50,[31],1.69 µM
same,TGI,[31],3.16 µM
same,GI50,[32],1.55 µM
same,TGI,[32],3.12 µM
same,GI50,[33],2.85 µM
same,GI50,[34],2.16 µM
same,TGI,[34],5.19 µM
same,GI50,[35],1.91 µM
same,TGI,[35],4.34 µM
same,GI50,[36],1.85 µM
same,TGI,[36],4.68 µM
same,GI50,[37],1.98 µM
same,TGI,[37],4.87 µM
same,GI50,[38],3.26 µM
same,TGI,[38],14.2 µM
same,GI50,[39],2.17 µM
same,TGI,[39],5.75 µM
same,GI50,[40],2.51 µM
same,TGI,[40],7.16 µM
same,GI50,[41],1.85 µM
same,TGI,[41],3.98 µM
same,GI50,[42],1.69 µM
same,TGI,[42],3.06 µM
same,GI50,[43],11.6 µM
same,TGI,[43],24.1 µM
same,GI50,[44],1.62 µM
same,TGI,[44],3.01 µM
same,GI50,[45],12.1 µM
same,TGI,[45],24.5 µM
same,GI50,[46],17.1 µM
same,TGI,[46],33 µM
same,GI50,[47],1.64 µM
same,TGI,[47],3.04 µM
same,GI50,[48],2.15 µM
same,TGI,[48],5.67 µM
same,GI50,[49],9.08 µM
same,TGI,[49],22.1 µM
same,GI50,[50],2 µM
same,TGI,[50],7.36 µM
same,GI50,[51],1.58 µM
same,TGI,[51],3.02 µM
same,GI50,[52],9.86 µM
same,TGI,[52],25.3 µM
same,GI50,[53],14.6 µM
same,TGI,[53],28.9 µM
same,GI50,[54],10.7 µM
same,TGI,[54],24.1 µM
same,GI50,[55],1.6 µM
same,TGI,[55],2.98 µM
same,GI50,[56],1.54 µM
same,TGI,[56],3.08 µM
